Measured values from US10987372B2, “Anti-hepatoma-virus agent” (KAGOSHIMA UNIVERSITY, priority 2016, dated 2021).

Key:
HCV = experiment: Evaluation of anti-HCV activity: Renilla luciferase HCV RNA replication reporter in OR6 cells; type: cell-based; conditions: 1 μM, culture for 3 days (FIG. 4)
Procedure: FIG. 4 is a graph showing anti-HCV activity levels of purine antimetabolites. OR6 cells were seeded at a concentration of 1.5×10^4 cells/well. Then, 24 hours later, purine antimetabolites were each diluted to result in a final concentration of 1 μM and each dilution was added to cells. After culture for 3 days, cells were collected to determine Renilla luciferase activity.
FIG. 7 is a graph showing anti-HCV activity of clofarabine. OR6 cells were seeded at a concentration of 1.5×10^4 cells/well. Then, 24 hour later, clofarabine was diluted to result in concentrations of 0, 15.6, 31.3, 62.5, 125, 250, 500, and 1000 nM and each dilution was added to cells. After culture for 3 days, cells were collected to determine Renilla luciferase activity.
Anti-HCV activity was evaluated using OR6 cells from the human liver cancer cell line HuH-7 and ORL8 cells from the human liver cancer cell line Li23. Since the Renilla Luciferase gene has been incorporated into the genome of the genotype-1b O strain in OR6 cells and ORL8 cells, it is possible to conveniently and accurately evaluate the level of HCV RNA replication by determining the Renilla Luciferase activity. Each agent was added to OR6 cells or ORL8 cells, the cells were recovered on day 3, and the Renilla Luciferase activity was determined. […]

HBV = experiment: Determination of anti-HBV activity: HBV DNA by quantitative PCR in HepG2.2.15 cells; type: cell-based; conditions: for anti-HBV activity (intracellular HBV DNA amount): 1 μM, culture for 7 days, quantitative PCR (FIG. 3)
Procedure: FIG. 3 is a graph showing anti-HBV activity levels of purine antimetabolites. HepG2.2.15 cells were seeded at a concentration of 1×10^5 cells/well. Then, 24 hours later, purine antimetabolites (clofarabine, cladribine, and fludarabine) and entecavir (ETV) were each diluted to result in a final concentration of 1 μM and each dilution was added to cells. After culture for 7 days, the cytoplasmic fraction was collected and DNA was purified by phenol-chloroform extraction. The intracellular HBV DNA amount was evaluated by quantitative PCR using 20 ng of purified DNA.
FIG. 5 is a graph showing anti-HBV activity of clofarabine. HepG2.2.15 cells were seeded at a concentration of 1×10^5 cells/well. Then, 24 hour later, clofarabine was diluted to result in concentrations of 0, 0.97, 1.95, 3.90, 7.81, 15.6, 31.3, 62.5, 125, 250, 500, and 1000 nM and each dilution was added to cells. After culture for 7 days, the cytoplasmic fraction was collected and DNA was purified by phenol-chloroform extraction. The intracellular HBV DNA amount was evaluated by quantitative PCR using 20 ng of purified DNA.
Anti-HBV activity was evaluated by quantitative PCR for determining the amount of HBV DNA in cells or HBV DNA in the culture supernatant on day 7 after the addition of the agent using the HepG2.2.15 cell line of HBV-producing cells obtained by introducing a gene having a length twice that of the HBV genome into the human liver cancer cell line HepG2. For PCR of HBV DNA, a forward primer (HBV-S190F; 5′-GCT CGT GTT ACA GGC GGG-3′: SEQ ID NO: 1) and a reverse primer (HBV-S703R; 5′-GAACCACTGAACAAATGGCACTAGTA-3′: SEQ ID NO: 2) were used. PCR was performed by carrying out a reaction at 95° C. for 10 sec, 62° C. for 10 sec, and 72° C. for 30 sec for 35 cycles.
For screening of the anti-HBV agent, the HepG2.2.15 line obtained by introducing the HBV gene into HepG2 cells of a human cancer cell line was used (Production of hepatitis B virus particles in HepG2 cells transfected with cloned hepatitis B virus DNA. Sells M A, Chen M L, and Acs G., Proc. Natl. Acad. Sci. USA 84: 1005-1009 (1987)). […]

leukemia = conditions: clinical use for leukemia; cited from earlier work

| SMILES | anti-HCV activity (Renilla luciferase activity) (HCV) | anti-HBV activity (intracellular HBV DNA amount) (HBV) | effective blood level for leukemia (leukemia) | concentration at which anti-HBV activity is exhibited (HBV; 7 days (FIG. 5)) |
| --- | --- | --- | --- | --- |
| Nc1nc(Cl)nc2c1ncn2[C@H]1C[C@H](O)[C@@H](CO)O1 [cladribine, 2-chloro-9-(2-deoxy-β-D-arabinofuranosyl)adenine] | has anti-HCV activity | does not have anti-HBV activity |  |  |
| Nc1nc(Cl)nc2c1ncn2[C@@H]1O[C@H](CO)[C@@H](O)[C@@H]1F [clofarabine, 2-chloro-9-(2-deoxy-2-fluoro-β-D-arabinofuranosyl)adenine] | comparable to that of sofosbuvir | comparable to that of entecavir | about 2 μM | about 20 nM |
